In ChEMBL document CHEMBL6120933, “Improving Anti-HIV activity and pharmacokinetics of enfuvirtide (T20) by modification with oligomannose” (Eur J Med Chem, 2024):

Test system: Human immunodeficiency virus 1
Experiment: Antiviral activity against HIV-1 pseudovirus infected in HEK293T cell transfected with DC-SIGN and luciferase assessed as inhibition of viral entry into cells at 500 uM preincubated with cells for 2 hrs followed by virus addition and measured after 4 hrs by p24 ELISA relative to control
Assay type: functional
Conditions: Human immunodeficiency virus 1, HEK-293T, time 6 hrs

[N-]=[N+]=NCCO[C@H]1O[C@H](CO[C@H]2O[C@H](CO)[C@@H](O)[C@H](O)[C@@H]2O[C@H]2O[C@H](CO)[C@@H](O)[C@H](O)[C@@H]2O)[C@@H](O)[C@H](O[C@H]2O[C@H](CO)[C@@H](O)[C@H](O)[C@@H]2O[C@H]2O[C@H](CO)[C@@H](O)[C@H](O)[C@@H]2O)[C@@H]1O
inhibition at 500 µM: 18%
